Data: patent US11505536B2, “Dihydroorotate dehydrogenase inhibitors” (Janssen Biotech, Inc., priority 2019, dated 2022)
pIC50: −log10 of the molar value.

Tests used:
[1] = test system: MOLM-13 cells (human acute myeloid leukemia cells); assay: MOLM-13 Cellular Assay; assay type: cell-based; conditions: 72 hours exposure, cell viability by CellTiter-Glo
Procedure: The following assay is referred to herein as the “MOLM-13 Cellular Assay.” MOLM-13 cells (human acute myeloid leukemia cells) were obtained from DSMZ and were maintained in RPMI 1640+Glutamax+25 mM HEPES (Invitrogen, catalog number 72400) supplemented with 10% heat inactivated fetal bovine serum (FBS; Invitrogen, catalog number 16140). The day prior to assay set-up, cells were pelleted, resuspended in fresh media, counted, and cells were plated at 0.4×10^6 cell/mL in a T150 flask. On the day of the assay, cells were pelleted, resuspend in fresh media, counted and seeded at 5,000 cells/well in white opaque 96-well tissue culture treated microplates (Perkin Elmer, catalog number 6005680). Cells were exposed to different concentrations of test compounds at 37° C., 5% CO2 for 72 hours immediately after seeding. Cell viability was acquired on a Perkin Elmer Envision 2104 multilabel reader using the CellTiter-Glo assay (Promega) according to the manufacturer's instructions.

human DHODH = human DHODH (Homo sapiens (Human), UniProt Q02127); assay: DHODH Enzymatic Assay; assay type: biochemical; conditions: purified human DHODH, DCIP absorbance, end-point mode; read-out: hDHODH IC50
Sequence of human DHODH (Q02127 whole entry): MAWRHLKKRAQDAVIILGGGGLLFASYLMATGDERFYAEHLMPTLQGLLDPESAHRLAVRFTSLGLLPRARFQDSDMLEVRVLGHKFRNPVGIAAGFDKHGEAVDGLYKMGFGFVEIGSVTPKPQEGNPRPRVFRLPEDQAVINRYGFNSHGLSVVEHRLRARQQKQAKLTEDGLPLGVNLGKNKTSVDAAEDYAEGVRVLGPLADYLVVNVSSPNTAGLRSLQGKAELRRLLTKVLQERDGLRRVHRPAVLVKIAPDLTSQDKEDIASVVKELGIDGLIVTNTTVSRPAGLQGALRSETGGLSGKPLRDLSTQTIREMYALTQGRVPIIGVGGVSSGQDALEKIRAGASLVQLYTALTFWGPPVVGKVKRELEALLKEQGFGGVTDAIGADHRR
Procedure: The following assay is referred to herein as the “DHODH Enzymatic Assay.” To detect DHODH enzyme activities, dichloroindophenol (DCIP) is added as the final electron acceptor in the assay. DCIP can accept electrons from the reduced coenzyme Q generated in the assay, or from dihydroorotate (DHO) via FMN by binding presumably to the ubiquinone pocket. DCIP solutions are blue, with an intense absorbance around 600 nm, but becomes colorless upon reduction (J. Biol. Chem. (1986) 261, 11386). The assay buffer contained […], pH 7.5, 150 mM NaCl, 0.5 mM EDTA, and 0.1% Triton X-100 in MilliQ water. Substrate consisting of 20 mM DHO, 5 mM CoQ6, and 1 mM DCIP in assay buffer, initiates the reaction. The assay is run in end-point mode by quenching the reaction with the potent DHODH inhibitor brequinar. Absorbance measurements were obtained using the BMG Phera Star plate-reading spectrophotomer. Purified human DHODH was purchased from Proteros (cat. No. PR-0044). Chemicals were purchased from Sigma-Aldrich, Teknova, and Avanti Polar Lipids. Liquid handling was performed using Labcyte Echo and Formulatrix Tempest.

SMILES	pIC50 ([1]; Homo sapiens, MOLM-13, 72 h)	pIC50 (human DHODH)	pIC50 [1]
CCn1c(CO)nn(-c2cc3c(C(C)C)cn(-c4nc(OC)ccc4F)c(=O)c3cc2F)c1=O [Example 96, 6-(4-Ethyl-3-(hydroxymethyl)-5-oxo-4,5-dihydro-1H-1,2,4-triazol-1-yl)-7-fluoro-2-(3-fluoro-6-methoxypyridin-2-yl)-4-isopropylisoquinolin-1(2H)-one]	8.05	8.21	–
C=C(C)c1cn(-c2ccccc2OC)c(=O)c2cc(F)c(-n3nc(CO)n(CC)c3=O)cc12 [Example 83, 6-(4-Ethyl-3-(hydroxymethyl)-5-oxo-4,5-dihydro-1H-1,2,4-triazol-1-yl)-7-fluoro-2-(2-methoxyphenyl)-4-(prop-1-en-2-yl)isoquinolin-1(2H)-one]	≥ 9.70	9.35	9.70
C=C(C)c1cn(-c2ccc(F)cc2C)c(=O)c2cc(F)c(-n3nc(CO)n(CC)c3=O)cc12 [Example 76, 6-(4-Ethyl-3-(hydroxymethyl)-5-oxo-4,5-dihydro-1H-1,2,4-triazol-1-yl)-7-fluoro-2-(4-fluoro-2-methylphenyl)-4-(prop-1-en-2-yl)isoquinolin-1(2H)-one]	8.40	8.82	–
C=C(C)c1cn(-c2cc(C)ccc2C)c(=O)c2cc(F)c(-n3nc(CO)n(CC)c3=O)cc12 [Example 87, 2-(2,5-Dimethylphenyl)-6-(4-ethyl-3-(hydroxymethyl)-5-oxo-4,5-dihydro-1H-1,2,4-triazol-1-yl)-7-fluoro-4-(prop-1-en-2-yl)isoquinolin-1(2H)-one]	9.05	9.53	–
CCn1c(CO)nn(-c2ccc3c(=O)n(-c4c(Cl)cccc4Cl)cc(C4(C)CC4)c3c2)c1=O [Example 7, 2-(2,6-Dichlorophenyl)-6-(4-ethyl-3-(hydroxymethyl)-5-oxo-4,5-dihydro-1H-1,2,4-triazol-1-yl)-4-(1-methylcyclopropyl)isoquinolin-1(2H)-one]	8.70	9.02	–
C=C(C)c1cn(-c2c(F)cccc2Cl)c(=O)c2ccc(-n3nc(CO)n(CC)c3=O)cc12 [Example 5, 2-(2-Chloro-6-fluorophenyl)-6-(4-ethyl-3-(hydroxymethyl)-5-oxo-4,5-dihydro-1H-1,2,4-triazol-1-yl)-4-(prop-1-en-2-yl)isoquinolin-1(2H)-one]	9.05	8.89	–
CCn1c(CO)nn(-c2cc3c(C(C)C)cn(-c4cc(C)ccc4F)c(=O)c3cc2F)c1=O [Example 41, 6-(4-Ethyl-3-(hydroxymethyl)-5-oxo-4,5-dihydro-1H-1,2,4-triazol-1-yl)-7-fluoro-2-(2-fluoro-5-methylphenyl)-4-isopropylisoquinolin-1(2H)-one]	8.70	8.53	–
C=C(C)c1cn(-c2c(C)ccnc2OC)c(=O)c2cc(F)c(-n3nc(CO)n(CC)c3=O)cc12 [Example 59, 6-(4-Ethyl-3-(hydroxymethyl)-5-oxo-4,5-dihydro-1H-1,2,4-triazol-1-yl)-7-fluoro-2-(2-methoxy-4-methylpyridin-3-yl)-4-(prop-1-en-2-yl)isoquinolin-1(2H)-one]	8.30	8.65	–
CCn1c(CO)nn(-c2cc3c(C(C)C)cn(-c4nc(OC)ccc4Cl)c(=O)c3cc2F)c1=O [Example 49, 2-(3-Chloro-6-methoxypyridin-2-yl)-6-(4-ethyl-3-(hydroxymethyl)-5-oxo-4,5-dihydro-1H-1,2,4-triazol-1-yl)-7-fluoro-4-isopropylisoquinolin-1(2H)-one]	8.70	8.96	–
C=C(C)c1cn(-c2c(F)cccc2Cl)c(=O)c2cc(F)c(-n3nc(CO)n(CC)c3=O)cc12 [Example 52, 2-(2-Chloro-6-fluorophenyl)-6-(4-ethyl-3-(hydroxymethyl)-5-oxo-4,5-dihydro-1H-1,2,4-triazol-1-yl)-7-fluoro-4-(prop-1-en-2-yl)isoquinolin-1(2H)-one]	≥ 9.70	9.58	10.00
C=C(C)c1cn(-c2ccccc2C)c(=O)c2ccc(-n3nc(CO)n(CC)c3=O)cc12 [Example 15, 6-(4-Ethyl-3-(hydroxymethyl)-5-oxo-4,5-dihydro-1H-1,2,4-triazol-1-yl)-4-(prop-1-en-2-yl)-2-(o-tolyl)isoquinolin-1(2H)-one]	9.40	9.20	–
C=C(c1cn(-c2c(F)cccc2Cl)c(=O)c2ccc(-n3nc(CO)n(CC)c3=O)cc12)C(F)(F)F [Example 6, 2-(2-Chloro-6-fluorophenyl)-6-(4-ethyl-3-(hydroxymethyl)-5-oxo-4,5-dihydro-1H-1,2,4-triazol-1-yl)-4-(3,3,3-trifluoroprop-1-en-2-yl)isoquinolin-1(2H)-one]	9.00	8.71	–
CCn1c(CO)nn(-c2cc3c(C(C)C)cn(-c4cncnc4C)c(=O)c3cc2F)c1=O [Example 94, 6-(4-Ethyl-3-(hydroxymethyl)-5-oxo-4,5-dihydro-1H-1,2,4-triazol-1-yl)-7-fluoro-4-isopropyl-2-(4-methylpyrimidin-5-yl)isoquinolin-1(2H)-one]	< 7.00	6.25	–
C=C(C)c1cn(-c2cc(OC)ncc2F)c(=O)c2cc(F)c(-n3nc(CO)n(CC)c3=O)cc12 [Example 85, 6-(4-Ethyl-3-(hydroxymethyl)-5-oxo-4,5-dihydro-1H-1,2,4-triazol-1-yl)-7-fluoro-2-(5-fluoro-2-methoxypyridin-4-yl)-4-(prop-1-en-2-yl)isoquinolin-1(2H)-one]	7.70	8.18	–
CCn1c(CO)nn(-c2nc3c(C)nn(-c4ccccc4C)c(=O)c3cc2F)c1=O [Example 33, 2-(4-Ethyl-3-(hydroxymethyl)-5-oxo-4,5-dihydro-1H-1,2,4-triazol-1-yl)-3-fluoro-8-methyl-6-(o-tolyl)pyrido[2,3-d]pyridazin-5(6H)-one]	< 7.00	6.62	–

Other lines, results leading:

pIC50 ([1]; Homo sapiens, MOLM-13, 72 h)	pIC50 (human DHODH)	pIC50 [1]	SMILES
8.00	7.83	–	CCn1c(CO)nn(-c2cc3c(C(C)C)cn(-c4ncccc4C)c(=O)c3cc2F)c1=O [Example 118, 6-(4-Ethyl-3-(hydroxymethyl)-5-oxo-4,5-dihydro-1H-1,2,4-triazol-1-yl)-7-fluoro-4-isopropyl-2-(3-methylpyridin-2-yl)isoquinolin-1(2H)-one]
8.10	8.32	–	CCn1c(CO)nn(-c2cc3c(C(C)C)cn(-c4cnccc4C)c(=O)c3cc2F)c1=O [Example 136, 6-(4-Ethyl-3-(hydroxymethyl)-5-oxo-4,5-dihydro-1H-1,2,4-triazol-1-yl)-7-fluoro-4-isopropyl-2-(4-methylpyridin-3-yl)isoquinolin-1(2H)-one]
7.70	7.98	–	CCn1c(CO)nn(-c2cc3c(C(C)C)cn(-c4nccc(OC)c4Cl)c(=O)c3cc2F)c1=O [Example 110, 2-(3-Chloro-4-methoxypyridin-2-yl)-6-(4-ethyl-3-(hydroxymethyl)-5-oxo-4,5-dihydro-1H-1,2,4-triazol-1-yl)-7-fluoro-4-isopropylisoquinolin-1(2H)-one]
9.00	8.77	–	CCn1c(CO)nn(-c2cc3c(C(C)C)cn([C@@H]4CCCC[C@H]4C)c(=O)c3cc2F)c1=O (stereo in doubt) [Example 120, 6-(4-Ethyl-3-(hydroxymethyl)-5-oxo-4,5-dihydro-1H-1,2,4-triazol-1-yl)-7-fluoro-4-isopropyl-2-((1R*,2R*)-2-methylcyclohexyl)isoquinolin-1(2H)-one]
9.05	9.05	–	CCn1c(CO)nn(-c2nc3c(C(C)C)cn(-c4ccccc4OC)c(=O)c3cc2F)c1=O [Example 130, 2-(4-Ethyl-3-(hydroxymethyl)-5-oxo-4,5-dihydro-1H-1,2,4-triazol-1-yl)-3-fluoro-8-isopropyl-6-(2-methoxyphenyl)-1,6-naphthyridin-5(6H)-one]
< 7.00	7.45	–	CCn1c(CO)nn(-c2cc3c(C(C)C)cn(-c4cc(O)ncc4C)c(=O)c3cc2F)c1=O [Example 139, 6-(4-Ethyl-3-(hydroxymethyl)-5-oxo-4,5-dihydro-1H-1,2,4-triazol-1-yl)-7-fluoro-2-(2-hydroxy-5-methylpyridin-4-yl)-4-isopropylisoquinolin-1(2H)-one]
8.05	7.77	–	CCn1c(CO)nn(-c2cc3c(C(C)C)cn([C@@H]4CCC[C@H]4C)c(=O)c3cc2F)c1=O (stereo in doubt) [Example 123, 6-(4-Ethyl-3-(hydroxymethyl)-5-oxo-4,5-dihydro-1H-1,2,4-triazol-1-yl)-7-fluoro-4-isopropyl-2-((1R*,2R*)-2-methylcyclopentyl)isoquinolin-1(2H)-one]
